Experimental data reported in patent US7615551B2, “Salicylate and gentisate salts of a piperazine compound” (Solvay Pharmaceuticals, B.V., priority 2005, dated 2009).

Columns and labels:
[1] = target: D2 receptors (Homo sapiens, UniProt P14416); conditions: cited from earlier work
[2] = target: 5HT reuptake (Homo sapiens, UniProt P31645); conditions: in therapeutic models; cited from earlier work
[3] = in vivo; cited from earlier work
[4] = test system: catalepsy; conditions: rodents; cited from earlier work
[5] = Water solubility; format: physicochemical; conditions: excess solid salt in water, equilibrated at least 24 hours, filtered, HPLC-UV; resulting pH 5.8
Method: Water solubility was determined by combining an excess amount of solid salt with ˜2 mL D1 water in a 4 mL glass screw-cap vial and equilibrating for at least 24 hours on an end-over-end rotator. The resulting suspensions were filtered through a 0.22 μm PVDF filter and assayed by high pressure liquid chromatography with quantitation by UV against standards of compound 1.

Chain of 5HT reuptake (P31645 whole entry): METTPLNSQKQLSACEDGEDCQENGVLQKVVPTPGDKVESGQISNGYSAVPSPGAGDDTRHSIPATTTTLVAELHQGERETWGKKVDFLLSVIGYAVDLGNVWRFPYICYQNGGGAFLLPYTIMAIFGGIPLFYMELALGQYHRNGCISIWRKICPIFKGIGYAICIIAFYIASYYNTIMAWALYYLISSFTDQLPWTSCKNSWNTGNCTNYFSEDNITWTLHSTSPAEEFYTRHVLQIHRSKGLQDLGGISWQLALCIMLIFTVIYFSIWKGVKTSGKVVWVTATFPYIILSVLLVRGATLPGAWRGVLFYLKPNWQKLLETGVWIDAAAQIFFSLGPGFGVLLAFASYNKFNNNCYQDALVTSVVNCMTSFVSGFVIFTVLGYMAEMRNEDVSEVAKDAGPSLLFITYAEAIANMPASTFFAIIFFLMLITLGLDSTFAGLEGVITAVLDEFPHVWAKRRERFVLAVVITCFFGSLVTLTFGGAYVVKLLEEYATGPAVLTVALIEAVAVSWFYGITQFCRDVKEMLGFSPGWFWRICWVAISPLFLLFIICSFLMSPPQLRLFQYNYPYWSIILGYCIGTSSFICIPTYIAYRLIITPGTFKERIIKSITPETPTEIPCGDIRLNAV
Chain of D2 receptors (P14416 whole entry): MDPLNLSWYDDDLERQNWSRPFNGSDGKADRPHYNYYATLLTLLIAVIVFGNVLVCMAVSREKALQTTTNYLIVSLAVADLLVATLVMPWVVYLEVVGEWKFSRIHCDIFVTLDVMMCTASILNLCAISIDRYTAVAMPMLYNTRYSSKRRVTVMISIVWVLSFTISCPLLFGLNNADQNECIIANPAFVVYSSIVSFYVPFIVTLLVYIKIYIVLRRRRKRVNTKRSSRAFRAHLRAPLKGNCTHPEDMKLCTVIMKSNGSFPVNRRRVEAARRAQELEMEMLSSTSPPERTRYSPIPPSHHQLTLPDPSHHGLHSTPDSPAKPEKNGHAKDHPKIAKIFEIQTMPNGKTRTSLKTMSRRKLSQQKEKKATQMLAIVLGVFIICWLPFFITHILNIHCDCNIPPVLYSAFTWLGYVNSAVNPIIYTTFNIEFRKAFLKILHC

Row | Compound | activity at D2 receptors [1] | activity against 5HT reuptake [2] | activity in therapeutic models sensitive to antipsychotics, antidepressants, anxiolytics, Parkinson's disease [3] | propensity to induce catalepsy [4] | water solubility [5]
1 | CC1Oc2c(cccc2N2CCN(CCCc3c[nH]c4ccc(F)cc34)CC2)NC1=O (stereo not drawn) [compound 1, 8-{4-[3-(5-fluoro-1H-indol-3-yl)-propyl]-piperazin-1-yl}-2-methyl-4H-benzo[1,4]oxazin-3-one] | antagonistic activity | inhibitory activity | active | low propensity to induce catalepsy | –
2 | CC1Oc2c(cccc2N2CCN(CCCc3c[nH]c4ccc(F)cc34)CC2)NC1=O (stereo not drawn) [compound 2] | – | – | – | – | 1.6 mg/mL (freebase equivalent)
3 | CC1Oc2c(cccc2N2CCN(CCCc3c[nH]c4ccc(F)cc34)CC2)NC1=O (stereo not drawn) [compound 3] | – | – | – | – | 0.5 mg/mL (freebase equivalent)
